Experimental findings from ChEMBL document CHEMBL4043159, “Structural evidence for the DPPH radical-scavenging mechanism of 2-O-α-d-glucopyranosyl-l-ascorbic acid” (Bioorg Med Chem, 2017) are described below.

Assay type in all cases: functional
Assay [1] can be described thus: Antioxidant activity assessed as DPPH free radical scavenging activity by measuring radical-scavenging activity factor (moles of radicals scavenged by each mol of antioxidant) at 20 uM measured at 120 mins by HPLC.
The nature of assay [2]: Antioxidant activity assessed as DPPH free radical scavenging activity by measuring radical-scavenging activity factor (moles of radicals scavenged by each mol of antioxidant) at 20 uM measured at 15 mins by HPLC. A general note: Loss of DPPH colour is used to gauge radical scavenging.
Assay [3] can be described thus: Antioxidant activity assessed as DPPH free radical scavenging activity by measuring radical-scavenging activity factor (moles of radicals scavenged by each mol of antioxidant) at 20 uM measured at 30 mins by HPLC.
Assay [4] is described as follows: Antioxidant activity assessed as DPPH free radical scavenging activity by measuring retention time of AA-2G-DPPH product at 20 uM incubated for 30 mins by HPLC method.
Assay [5] is described as follows: Antioxidant activity assessed as DPPH free radical scavenging activity by measuring radical-scavenging activity factor (moles of radicals scavenged by each mol of antioxidant) at 20 uM measured at 10 mins by HPLC.
The nature of assay [6]: Antioxidant activity assessed as time duration for DPPH free radical scavenging activity at 20 uM by HPLC.
The nature of assay [7]: Antioxidant activity assessed as DPPH free radical scavenging activity by measuring AA-2G-DPPH product formation at 0.25 to 0.75 mM incubated for 30 mins by HPLC method.
The nature of assay [8]: Antioxidant activity assessed as DPPH free radical scavenging activity by measuring AA-2G-DPPH adducts level at 200 uM measured at 10 mins by HPLC.
A short description of assay [9]: Antioxidant activity assessed as DPPH free radical scavenging activity by measuring AA-2G-DPPH adducts formation at 200 uM measured within 10 mins by HPLC.
A short description of assay [10]: Antioxidant activity assessed as DPPH free radical scavenging activity by measuring AA-2G-DPPH adducts formation at 5 mM incubated for 10 to 30 mins by 1H NMR spectroscopy.
Assay [11] can be described thus: Antioxidant activity assessed as DPPH free radical scavenging activity by measuring amount of compound consumed at 200 uM measured at 10 mins by HPLC.

Active and inactive are the calls of the source. The rule behind the calls is not given here. Some results are limits rather than exact numbers.

As for `O=C1O[C@H]([C@@H](O)CO)C(O)=C1O`, the scavenging factor in assay [1] amounted to 1.9 mol/mol; in [2], 1.8 mol/mol; in assay [3], 1.9 mol/mol; in [5], 1.8 mol/mol. Further, in assay [4], the outcome was inactive. Further, the TIME in assay [6] is under 0.0167 h.
As for `O=C1O[C@H]([C@@H](O)CO)C(O)=C1O[C@H]1O[C@H](CO)[C@@H](O)[C@H](O)[C@H]1O`, the Activity entry in [7] was “Dose-dependent effect”; in assay [8], 190 µM; in [11], 190 µM. The scavenging factor in [1] amounted to 2.7 mol/mol; in [2], 1.7 mol/mol; in assay [3], 2.1 mol/mol; in assay [5] it was 1.5 mol/mol. The outcome in [9] and in [10] was Active. Moreover, the Retention time in assay [4] amounted to 15 min. Besides, the TIME in assay [6] stood at 2 h.
